Measured values from ChEMBL document CHEMBL1201862, “PubChem BioAssay data set” (2004).
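Dose response: 5 concentrations. Exposure: 48 h. Format: 96-well plates. Endpoint: linear interpolation; highest concentration if not reached. GI50: concentration for 50% inhibition of growth.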 Active and inactive are the calls of the source. No stated cut-off is given here; in the data, active = GI50 up to about 1.1 µM and inactive = higher.

Experiments:
Experiment in all cases: NCI tumour cell line growth inhibition, 48 h
HCT-116 = system: HCT-116
OVCAR-4 = system: OVCAR-4
SN12C = system: SN12C
OVCAR-8 = system: OVCAR-8
PC-3 = system: PC-3
HL-60 = system: HL-60
NCI-H226 = system: NCI-H226
SR = system: SR
786-0 = system: 786-0
SNB-75 = system: SNB-75
RPMI-8226 = system: RPMI-8226
DU-145 = system: DU-145
SF-295 = system: SF-295
HCC 2998 = system: HCC 2998
SK-MEL-5 = system: SK-MEL-5
NCI/ADR-RES = system: NCI/ADR-RES
UACC-62 = system: UACC-62
NCI-H522 = system: NCI-H522
SW-620 = system: SW-620

Structure (SMILES) | GI50 (HCT-116) | GI50 (OVCAR-4) | GI50 (SN12C) | GI50 (OVCAR-8) | GI50 (PC-3) | GI50 (HL-60) | GI50 (NCI-H226) | GI50 (SR) | GI50 (786-0) | GI50 (SNB-75) | GI50 (RPMI-8226) | GI50 (DU-145) | GI50 (SF-295) | GI50 (HCC 2998) | GI50 (SK-MEL-5) | GI50 (NCI/ADR-RES) | GI50 (UACC-62) | GI50 (NCI-H522) | GI50 (SW-620)
CCSc1nc(-c2cccs2)nc2ccc(I)cc12 | > 100 µM (inactive) | > 100 µM (inactive) | > 100 µM (inactive) | > 100 µM (inactive) | > 100 µM (inactive) | > 100 µM (inactive) | > 100 µM (inactive) | > 100 µM (inactive) | > 100 µM (inactive) | > 100 µM (inactive) | > 100 µM (inactive) | > 100 µM (inactive) | > 100 µM (inactive) | > 100 µM (inactive) | > 100 µM (inactive) | > 100 µM (inactive) | > 100 µM (inactive) | > 100 µM (inactive) | > 100 µM (inactive)
Clc1ccc(OCc2nnc3n2N=C(c2ccc(Br)cc2)CS3)cc1 | 22.6 µM (inactive) | 7.89 µM (inactive) | 52.8 µM (inactive) | 15.9 µM (inactive) | – | > 100 µM (inactive) | 53.1 µM (inactive) | > 100 µM (inactive) | 16.4 µM (inactive) | 2.96 µM (inactive) | 30.3 µM (inactive) | – | 15.8 µM (inactive) | 84.5 µM (inactive) | > 10 µM (inactive) | – | 27.1 µM (inactive) | 7.1 µM (inactive) | 32.7 µM (inactive)
CN(C)c1ccc(NN=C2SC(=N\c3ccccc3)/C(=N/c3ccccc3)S2)cc1 | 14.9 µM (inactive) | 30.2 µM (inactive) | 43.4 µM (inactive) | 64.9 µM (inactive) | > 100 µM (inactive) | 2.97 µM (inactive) | > 100 µM (inactive) | – | > 100 µM (inactive) | 27.3 µM (inactive) | > 100 µM (inactive) | > 100 µM (inactive) | > 100 µM (inactive) | 26.6 µM (inactive) | 19.8 µM (inactive) | 67.8 µM (inactive) | 9.38 µM (inactive) | 6.03 µM (inactive) | 53 µM (inactive)
C/C(=C\c1ccccc1)C(O)S(=O)(=O)O (stereo not drawn) | > 100 µM (inactive) | > 100 µM (inactive) | > 100 µM (inactive) | > 100 µM (inactive) | – | > 100 µM (inactive) | > 100 µM (inactive) | > 100 µM (inactive) | > 100 µM (inactive) | > 100 µM (inactive) | > 100 µM (inactive) | – | > 100 µM (inactive) | > 100 µM (inactive) | > 100 µM (inactive) | – | > 100 µM (inactive) | > 100 µM (inactive) | > 100 µM (inactive)
COc1cc(OC)c2c(c1)C(=O)C(CC(C)O)=CC2=O (stereo not drawn) | 12.5 µM (inactive) | 17.8 µM (inactive) | 18.7 µM (inactive) | 15.7 µM (inactive) | – | 5.47 µM (inactive) | 20.8 µM (inactive) | 2 µM (inactive) | 16.2 µM (inactive) | 25.8 µM (inactive) | 11.5 µM (inactive) | – | 14.2 µM (inactive) | 28.6 µM (inactive) | 14.7 µM (inactive) | – | 11.8 µM (inactive) | 14.4 µM (inactive) | 17.8 µM (inactive)
Cc1cc(C)nc(NS(=O)(=O)c2ccc(Nc3nncc(=O)n3N)cc2)n1 | 28.2 µM (inactive) | 18.1 µM (inactive) | – | 15.4 µM (inactive) | 21.5 µM (inactive) | 17.4 µM (inactive) | – | 16.8 µM (inactive) | 15.8 µM (inactive) | – | 9.44 µM (inactive) | 34.3 µM (inactive) | 31.6 µM (inactive) | 30.5 µM (inactive) | 17 µM (inactive) | 23.6 µM (inactive) | 19.8 µM (inactive) | 12.8 µM (inactive) | 16.2 µM (inactive)
CN(C)/N=C(/c1nc2ccc([N+](=O)[O-])cc2nc1O)C(O)c1ccco1 (stereo not drawn) | > 100 µM (inactive) | > 100 µM (inactive) | > 100 µM (inactive) | > 100 µM (inactive) | – | > 100 µM (inactive) | > 100 µM (inactive) | > 100 µM (inactive) | > 100 µM (inactive) | > 100 µM (inactive) | > 100 µM (inactive) | – | > 100 µM (inactive) | 53 µM (inactive) | 70.1 µM (inactive) | – | 22.8 µM (inactive) | 8.57 µM (inactive) | 92.3 µM (inactive)
CCOc1ccccc1NC(=O)C(C#N)C1=C(Cl)C(=O)c2ccccc2C1=O (stereo not drawn) | 1.95 µM (inactive) | 1.94 µM (inactive) | 1.79 µM (inactive) | 0.792 µM (active) | – | 0.486 µM (active) | 2.13 µM (inactive) | 1.33 µM (inactive) | 1.79 µM (inactive) | 2.33 µM (inactive) | 1.58 µM (inactive) | – | 1.72 µM (inactive) | 1.75 µM (inactive) | 1.5 µM (inactive) | – | 1.83 µM (inactive) | 2.09 µM (inactive) | 1.78 µM (inactive)
